Molecules are shown by their SMILES.

Test [1] deals with TGFb/SMAD Signaling Pathway SBE reporter cell line. Kind of test: TGFb reporter assay (TGFb/SMAD Signaling Pathway SBE luciferase reporter cell line). Type of test: cell-based. The following applies: 5-6 h preincubation, then TGFb, 18 h, luciferase luminescence. The method, then: TGFβ/SMAD Signaling Pathway SBE reporter cell line was obtained from BPS Bioscience. Cells were passed, expanded, and stored in liquid nitrogen as per the supplier's instructions with the exception that growth media is changed to DMEM-C with Geneticin (DMEM supplemented with 10% fetal bovine serum, 1×NEAA, 1 mM Pyruvate, 2 mM glutamine, 50 μg/mL penicillin, 50 U/mL streptomycin and 400 μg/mL of Geneticin). The assay media was MEM supplemented with 0.5% fetal bovine serum, 1×NEAA, 1 mM Pyruvate, 50 μg/mL penicillin and 50 U/mL streptomycin.
TGFb/SMAD Signaling Pathway SBE reporter cell line was obtained from BPS Bioscience. Cells were passed/expanded/stored in liquid nitrogen per supplier's instruction with the exception that growth media was changed to DMEM-C with Geneticin (DMEM supplemented with 10% fetal bovine serum, IX NEAA, 1 mM Pyruvate, 2 mM glutamine, 50 μg/mL penicillin, 50 U/mL streptomycin and 400 ug/mL of Geneticin). The assay media was MEM supplemented with 0.5% fetal bovine serum, IX NEAA, 1 mM Pyruvate, 50 μg/mL penicillin and 50 U/mL streptomycin.
Reporter cells were harvested from the tissue culture flasks by incubation in small quantity of Versene at room temperature for three to five minutes after the media in the flask was removed and cells rinsed with PBS. Cells were counted and diluted in the assay media at 0.8×10^6 cells/mL then 50 uL/well were added to 96-well assay plate. Test samples (at desired concentrations diluted in assay media) were added to assay plate containing the 50 uL/well of cells (or media only), 50 uL per well, and incubated for 5-6 hours at 37° C. in a 5% CO2 humidified incubator. After that time, 15 uL of TGFb diluted to 12.5 ng/mL in the assay media was added to the plate. Controls included TGFb titration (from 25 to 0 ng/mL) without inhibitors, and media only (without cells, inhibitor or TGFb). Plates were incubated at 37° C. in a […] humidified incubator for 18 h. Luciferase substrate solution was subsequently added at 75 uL per well, incubated in dark with shaking at room temperature for 10 min, and luminescence was measured using a luminometer.

For another test, the target named is T1, ALK5 (Homo sapiens, UniProt P36897).
T1 construct: purchased Reaction Biology Corp (Malvern, Pa.)
T1 sequence (P36897 34-503): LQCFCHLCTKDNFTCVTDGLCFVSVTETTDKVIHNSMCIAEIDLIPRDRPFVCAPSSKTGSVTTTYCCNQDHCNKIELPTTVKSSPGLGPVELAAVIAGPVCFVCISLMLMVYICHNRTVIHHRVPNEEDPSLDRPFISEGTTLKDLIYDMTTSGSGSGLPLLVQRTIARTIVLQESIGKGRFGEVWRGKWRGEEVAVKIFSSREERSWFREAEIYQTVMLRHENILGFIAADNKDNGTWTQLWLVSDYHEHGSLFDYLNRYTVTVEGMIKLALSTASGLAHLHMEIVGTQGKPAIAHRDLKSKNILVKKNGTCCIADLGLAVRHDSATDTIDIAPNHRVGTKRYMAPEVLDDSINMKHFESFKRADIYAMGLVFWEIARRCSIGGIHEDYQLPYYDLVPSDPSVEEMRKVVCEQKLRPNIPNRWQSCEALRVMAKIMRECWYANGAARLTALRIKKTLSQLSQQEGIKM
Kind of test: ALK5 enzyme inhibition assay (Reaction Biology Corp, 33P-ATP filter-binding, casein substrate). The conditions noted are these: 10 uM ATP, 2 hours at room temperature. Type of test: biochemical. The method, then: ALK5 enzyme inhibition assays were performed by Reaction Biology Corp (Malvern, Pa.). 1 mg/mL of peptide substrate (casein) and 10 uM ATP were prepared in a mixture of fresh reaction buffer. The kinase was delivered into the substrate solution which was gently mixed. Compounds in 100% DMSO were added to the kinase reaction mixture by Acoustic technology (Echo550; nanoliter range) and the mixture was incubated for 20 min at room temperature. ^33P-ATP (Specific activity 10 uCi/uL) was added into the reaction mixture to initiate the reaction and the reaction mixture was incubated for 2 hours at room temperature. Radioactivity was detected by filter-binding method and kinase activity data were expressed as the percent remaining kinase activity in test samples compared to vehicle (dimethyl sulfoxide) reactions. IC50 values and curve fits were obtained using Prism (GraphPad Software).

Take `COC(=O)[C@@H](NCc1nc(-c2cccc(C)n2)c(-c2ccc3ncnn3c2)[nH]1)c1ccccc1` [Compound 16]: the EC50 in test [1] is 100 to 1000 nM. Also, the IC50 at ALK5 was in the range of 0.1 to 50 nM.
For `Cc1cccc(-c2nc(CN[C@@H](C)c3ccccc3)[nH]c2-c2ccc3ncnn3c2)n1` [Compound 12] the same measures were 100 to 1000 nM and 1000 to 10000 nM.
The molecule `Cc1cccc(-c2nc(CNCCN(C)c3ccccc3)[nH]c2-c2ccc3ncnn3c2)n1` [Compound 67] registered an EC50 in test [1] of 0.1 to 10 nM.
Same read-out and setting: the figure for `Cc1cccc(-c2nc(CNCc3ccccc3-c3ccccc3)[nH]c2-c2ccnc3ccccc23)n1` [Compound 69] is 100 to 1000 nM; for `Cc1cccc(-c2nc(CNCc3ccccc3)[nH]c2-c2ccc3ncccc3n2)n1` [Compound 73] it is 100 to 1000 nM.
`Cc1cccc(-c2nc(CNCc3ccc(Cl)c(Cl)c3)[nH]c2-c2ccc3ncnn3c2)n1` [Compound 4]: the EC50 in test [1] is 100 to 1000 nM.
On the same count and under the same terms, the figure for `Cc1cccc(-c2nc(CNCc3ccccc3)[nH]c2-c2ccnc3ccccc23)n1` [Compound 74] is 100 to 1000 nM; for `Cc1cccc(-c2nc(CNCc3ccccc3)[nH]c2-c2ccccn2)n1` [Compound 75] it is 100 to 1000 nM.
The molecule `Cc1cccc(-c2nc(CNCc3ccccc3OC(F)(F)F)[nH]c2-c2ccc3ncnn3c2)n1` [Compound 26] had an EC50 in test [1] of 0.1 to 10 nM.
Still for that read-out and setting: then `Cc1cccc(CNCc2nc(-c3cccc(C)n3)c(-c3ccc4ncnn4c3)[nH]2)c1` [Compound 50], with 10 to 100 nM; and `Cc1cccc(-c2nc(CN[C@@H](CO)c3ccccc3)[nH]c2-c2ccc3ncnn3c2)n1` [Compound 14], with 10 to 100 nM; and `Cc1cccc(-c2nc(CNCc3ccccc3C#N)[nH]c2-c2ccc3ncnn3c2)n1` [Compound 20], with 100 to 1000 nM.
The same measure, in the same setting: then `Cc1cccc(-c2nc(CNCc3ccccc3Oc3ccncc3)[nH]c2-c2ccc3ncnn3c2)n1` [Compound 55], with 1000 to 10000 nM.
The same measure, in the same setting: the figure for `Cc1cccc(-c2nc(CNCc3ccccc3C(O)C(F)(F)F)[nH]c2-c2ccc3ncnn3c2)n1` (stereo not shown) [Compound 28] is 0.1 to 10 nM; for `Cc1cccc(-c2nc(CNCCc3c(F)cccc3F)[nH]c2-c2ccc3c(c2)OCO3)n1` [Compound 81] it is 10 to 100 nM.
The molecule `Cc1cccc(-c2nc(CN[C@H](C)c3ccccc3)[nH]c2-c2ccc3ncnn3c2)n1` [Compound 11] gave an EC50 in test [1] of 10 to 100 nM.
On the same count and under the same terms, then `COc1cccc(CNCc2nc(-c3cccc(C)n3)c(-c3ccc4ncnn4c3)[nH]2)c1` [Compound 7], with 0.1 to 10 nM; and `Cc1cccc(-c2nc(CNCCc3c(F)cccc3F)[nH]c2-c2ccc3ncccc3n2)n1` [Compound 78], with 0.1 to 10 nM.
Turning to `Cc1cccc(-c2nc(CNCc3ccccc3C(C)C)[nH]c2-c2ccc3ncnn3c2)n1` [Compound 23], in test [1], the EC50 fell in the range of 0.1 to 10 nM.
Take `COc1ccc(OC)c(CNCc2nc(-c3cccc(C)n3)c(-c3ccc4ncnn4c3)[nH]2)c1` [Compound 9]: in test [1], the EC50 is 10 to 100 nM.
The same measure, in the same setting: then `Cc1cccc(-c2nc(CNCc3ccccc3-c3ccccc3)[nH]c2-c2ccc3c(c2)OCO3)n1` [Compound 71], with 100 to 1000 nM.
For `Cc1cccc(-c2nc(CNCc3ccccc3C)[nH]c2-c2ccc3ncccc3n2)n1` [Compound 83], the EC50 in test [1] is 0.1 to 10 nM.
As for `COc1ccc(CNCc2nc(-c3cccc(C)n3)c(-c3ccc4ncnn4c3)[nH]2)cc1` [Compound 8], the concentration for a half-maximal effect (EC50) in test [1] is 100 to 1000 nM.
Still for that read-out and setting: then `Cc1cccc(-c2nc(CNCc3cccc(-c4ccccc4)c3C)[nH]c2-c2ccc3ncnn3c2)n1` [Compound 49], with 10 to 100 nM.
The same measure, in the same setting: then `Cc1cccc(-c2nc(CNCc3ccccc3)[nH]c2-c2ccc3ncnn3c2)n1` [Compound 1, 1-(5-([1,2,4]triazolo[1,5-a]pyridin-6-yl)-4-(6-methylpyridin-2-yl)-1H-imidazol-2-yl)-N-benzylmethanamine], with 0.1 to 10 nM; and `Cc1cccc(-c2nc(CNCCc3ccccc3)[nH]c2-c2ccc3ncnn3c2)n1` [Compound 52], with 0.1 to 10 nM; and `Cc1cccc(-c2nc(CNCc3cccc(Cl)c3C)[nH]c2-c2ccc3ncnn3c2)n1` [Compound 47], with 0.1 to 10 nM.
Same read-out and setting: then `Cc1cccc(-c2nc(CNCc3ccccc3-c3ccccc3)[nH]c2-c2ccc3nccnc3c2)n1` [Compound 72], with 10 to 100 nM.
In turn, `Cc1cccc(-c2nc(CNCc3ccccc3-c3ccccn3)[nH]c2-c2ccc3ncnn3c2)n1` [Compound 40] gave an EC50 in test [1] of 10 to 100 nM.
As to `Cc1cccc(-c2nc(CNCCNc3ccccc3)[nH]c2-c2ccc3ncnn3c2)n1` [Compound 66], the EC50 in test [1] is 0.1 to 10 nM.
The same measure, in the same setting: the figure for `Cc1cccc(-c2nc(CNCc3ccccc3-c3cccc(CN)c3)[nH]c2-c2ccc3ncnn3c2)n1` [Compound 33] is 100 to 1000 nM; for `Cc1cccc(-c2nc(CNCCc3c(F)cccc3F)[nH]c2-c2ccncc2)n1` [Compound 80] it is 100 to 1000 nM; for `Cc1cccc(-c2nc(CNCc3ccccc3-c3ccc(CN)cc3)[nH]c2-c2ccc3ncnn3c2)n1` [Compound 34] it is 100 to 1000 nM.
Still for that read-out and setting: the figure for `Cc1cccc(-c2nc(CNCc3ccccc3-c3cc(F)cc(F)c3)[nH]c2-c2ccc3ncnn3c2)n1` [Compound 39] is 10 to 100 nM.
Still for that read-out and setting: the figure for `Cc1cccc(-c2nc(CNCc3ccccc3N(C)C)[nH]c2-c2ccc3ncnn3c2)n1` [Compound 25] is 0.1 to 10 nM.

As usually defined, the EC50 is the concentration giving half of the maximal effect. One may read the IC50 as the point on the concentration scale where inhibition reaches its midpoint. A low value points to greater potency.
